From PubChem BioAssay (NCI)
Several values for one entry are separate records, joined by “and”; a condition that tells them apart may be missing. Identical values can stand only once.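 Where inhibition never reached the appropriate level, the endpoint shown equals the highest concentration tested. Otherwise, values were interpolated linearly from a five-concentration, 48-hour dose response in 96-well plates. Abbreviation: GI50, concentration required for 50% inhibition of growth. TGI: concentration producing complete growth inhibition.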

What was measured:
Experiment in all cases: NCI tumour cell line growth inhibition, 48 h
[1] = system: MALME-3M melanoma
[2] = system: SN12C renal
[3] = system: BT-549 breast
[4] = system: OVCAR-3 ovarian
[5] = system: SW-620 colon
[6] = system: HCT-116 colon
[7] = system: UACC-257 melanoma
[8] = system: HS 578T breast
[9] = system: MOLT-4 leukemia
[10] = system: HOP-62 NSCLC
[11] = system: MDA-MB-231 breast
[12] = system: CCRF-CEM leukemia
[13] = system: DU-145 prostate
[14] = system: SF-268 CNS
[15] = system: K-562 leukemia
[16] = system: NCI-H522 lung
[17] = system: SR leukemia
[18] = system: MDA-MB-435
[19] = system: PC-3 prostate
[20] = system: HT29 colon
[21] = system: SF-295 CNS
[22] = system: SK-MEL-28 melanoma
[23] = system: SF-539 CNS
[24] = system: SK-MEL-5 melanoma
[25] = system: A549 NSCLC
[26] = system: NCI/ADR-RES ovarian
[27] = system: IGROV1 ovarian
[28] = system: SK-MEL-2 melanoma
[29] = system: NCI-H226 lung
[30] = system: NCI-H23 lung
[31] = system: U251 CNS
[32] = system: HCC-2998 colon
[33] = system: CAKI-1 renal
[34] = system: UACC-62 melanoma
[35] = system: LOX IMVI melanoma
[36] = system: TK-10 renal
[37] = system: SNB-75 CNS
[38] = system: MCF7 breast
[39] = system: KM12 colon
[40] = system: ACHN renal
[41] = system: T-47D breast
[42] = system: HL-60(TB) leukemia
[43] = system: EKVX NSCLC
[44] = system: NCI-H460 lung
[45] = system: M14 melanoma
[46] = system: OVCAR-4 ovarian
[47] = system: SNB-19 CNS
[48] = system: OVCAR-8 ovarian
[49] = system: SK-OV-3 ovarian
[50] = system: OVCAR-5 ovarian
[51] = system: HOP-92 NSCLC
[52] = system: RPMI-8226 leukemia
[53] = system: A498 renal
[54] = system: MDA-N
[55] = system: HCT-15 colon
[56] = system: 786-0 renal
[57] = system: COLO 205 colon
[58] = system: UO-31 renal
[59] = system: RXF 393 renal

SMILES: CC1CCC2(NC1)OC1CC3C4CC=C5CC(O)CCC5(C)C4CCC3(C)C1C2C (stereo unspecified)
- GI50 [1]: 34.1 µM and 13.5 µM
- TGI [1]: > 100 µM and 34.3 µM
- TGI [2]: 50.8 µM and 38.4 µM
- TGI [3]: > 100 µM
- GI50 [4]: 28 µM and 8.98 µM
- TGI [4]: > 100 µM and 32.5 µM
- TGI [5]: > 100 µM
- TGI [6]: 53.5 µM and > 68.1 µM
- TGI [7]: > 100 µM
- TGI [8]: > 100 µM and 37 µM
- TGI [9]: 55.5 µM and 59.5 µM
- GI50 [10]: 27.4 µM and 9.34 µM
- TGI [10]: 92.4 µM and 46.2 µM
- TGI [11]: 51.7 µM and 37 µM
- TGI [12]: 40 µM and 41.5 µM
- GI50 [13]: 94.2 µM and 35.3 µM
- TGI [13]: > 100 µM
- GI50 [14]: 39.8 µM and 16.1 µM
- TGI [14]: > 100 µM
- TGI [15]: > 100 µM
- TGI [16]: > 100 µM and 62.9 µM
- TGI [17]: 9.63 µM and 12.4 µM
- GI50 [18]: 48.7 µM and 16.6 µM
- TGI [18]: > 100 µM
- TGI [19]: > 100 µM
- TGI [20]: > 100 µM
- TGI [21]: 92.7 µM and > 64.3 µM
- GI50 [22]: 56.4 µM and 25.6 µM
- TGI [22]: > 100 µM
- TGI [23]: 40.1 µM and 29.4 µM
- GI50 [24]: 59 µM and 27.3 µM
- TGI [24]: > 100 µM
- GI50 [25]: 42.4 µM and 20.3 µM
- TGI [25]: > 100 µM
- TGI [26]: 51.3 µM and > 57.1 µM
- TGI [27]: > 100 µM
- TGI [28]: > 100 µM and 45.4 µM
- TGI [29]: > 100 µM and 66.5 µM
- TGI [30]: > 100 µM
- GI50 [31]: 23.7 µM and 4.92 µM
- TGI [31]: 64.7 µM and 23.5 µM
- GI50 [32]: 31.7 µM and 15.2 µM
- TGI [32]: > 100 µM and 56 µM
- GI50 [33]: 25.5 µM and 11.2 µM
- TGI [33]: 71.6 µM and 33 µM
- TGI [34]: 65.1 µM and 50.4 µM
- GI50 [35]: 19.9 µM and 4.93 µM
- TGI [35]: 57.3 µM and > 63.8 µM
- TGI [36]: 47.9 µM and 44.7 µM
- TGI [37]: 15.3 µM
- TGI [38]: > 100 µM
- GI50 [39]: 14 µM and 6.75 µM
- TGI [39]: 47.4 µM and 64.4 µM
- GI50 [40]: 29.8 µM and 11.1 µM
- TGI [40]: 91.7 µM and 30 µM
- TGI [41]: 49 µM and 48.9 µM
- TGI [42]: 31.5 µM and 29.9 µM
- TGI [43]: > 100 µM
- TGI [44]: > 100 µM
- TGI [45]: > 100 µM
- GI50 [46]: 22.3 µM and 5.29 µM
- TGI [46]: 58.8 µM and 53.7 µM
- GI50 [47]: 18.9 µM and 6.38 µM
- TGI [47]: 99.5 µM and 62.1 µM
- GI50 [48]: 10.6 µM and 5.16 µM
- TGI [48]: 35.9 µM and 49 µM
- TGI [49]: 69.2 µM and 38.6 µM
- TGI [50]: > 100 µM
- TGI [51]: 49.5 µM and 46.2 µM
- TGI [52]: 93.3 µM and 70.2 µM
- GI50 [53]: 18.7 µM and 5.56 µM
- TGI [53]: 38.5 µM and 14.5 µM
- GI50 [54]: 31.1 µM and 12.2 µM
- TGI [54]: > 100 µM
- TGI [55]: > 100 µM
- GI50 [56]: 14.5 µM and 3.24 µM
- TGI [56]: 30.1 µM and 11.9 µM
- TGI [57]: > 100 µM
- GI50 [58]: 18.2 µM and 6.3 µM
- TGI [58]: 37.8 µM and 13.8 µM
- TGI [59]: 60.2 µM and 39.9 µM
